Tested on: MCF-7 breast cancer cells
Assay: Microarray gene expression analysis (Agilent whole human genome 4 x 44K; compound vs DMSO, LIMMA log2 fold change)
Format: cell-based
Settings: Apoptosis genes

## Oc1cccc(-c2nc(N3CCOCC3)c3oc4ncccc4c3n2)c1 [PI-103]
Gene 6899
  TBX1 log2FC: 0.079
Gene 6910
  TBX5 log2FC: 0.103
Gene 6926
  TBX3 log2FC: -0.691
Gene 6934
  TCF7L2 log2FC: 0.036
Gene 6997
  TDGF1 log2FC: 0.005
Gene 7001
  PRDX2 log2FC: 0.385
Gene 7013
  TERF1 log2FC: 0.376
Gene 7015
  TERT log2FC: -0.048
Gene 7020
  TFAP2A log2FC: -0.507
Gene 7021
  TFAP2B log2FC: -0.150
Gene 7023
  TFAP4 log2FC: 0.386
Gene 7039
  TGFA log2FC: -0.533
Gene 7040
  TGFB1 log2FC: -0.436
Gene 7043
  TGFB3 log2FC: 0.355
Gene 7046
  TGFBR1 log2FC: 0.121
Gene 7048
  TGFBR2 log2FC: 0.950
Gene 7052
  TGM2 log2FC: -0.690
Gene 7057
  THBS1 log2FC: -0.908
Gene 7067
  THRA log2FC: 0.660
Gene 7072
  TIA1 log2FC: 0.065
Gene 7073
  TIAL1 log2FC: 0.160
Gene 7074
  TIAM1 log2FC: -0.173
Gene 7076
  TIMP1 log2FC: -0.137
Gene 7082
  TJP1 log2FC: 0.317
Gene 7088
  TLE1 log2FC: 0.501
Gene 7097
  TLR2 log2FC: -0.157
Gene 7098
  TLR3 log2FC: 0.801
Gene 7101
  NR2E1 log2FC: -0.112
Gene 7110
  TMF1 log2FC: 0.594
Gene 7124
  TNF log2FC: -1.866
Gene 7126
  TNFAIP1 log2FC: -0.271
Gene 7128
  TNFAIP3 log2FC: -0.853
Gene 7132
  TNFRSF1A log2FC: -0.921
Gene 7153
  TOP2A log2FC: 0.914
Gene 7157
  TP53 log2FC: 0.057
Gene 7159
  TP53BP2 log2FC: 0.347
Gene 7161
  TP73 log2FC: -0.255
Gene 7164
  TPD52L1 log2FC: 0.154
Gene 7178
  TPT1 log2FC: 0.376
Gene 7184
  HSP90B1 log2FC: 0.295
Gene 7185
  TRAF1 log2FC: -0.626
Gene 7187
  TRAF3 log2FC: -0.946
Gene 7188
  TRAF5 log2FC: 0.350
Gene 7189
  TRAF6 log2FC: -0.154
Gene 7204
  TRIO log2FC: 0.335
Gene 7227
  TRPS1 log2FC: 0.634
Gene 7262
  PHLDA2 log2FC: -3.120
Gene 7291
  TWIST1 log2FC: 0.425
Gene 7293
  TNFRSF4 log2FC: 0.091
Gene 7301
  TYRO3 log2FC: 0.021
Gene 7311
  UBA52 log2FC: 0.306
Gene 7314
  UBB log2FC: 0.036
Gene 7316
  UBC log2FC: 0.333
Gene 7320
  UBE2B log2FC: 0.652
Gene 7323
  UBE2D3 log2FC: -0.368
Gene 7349
  UCN log2FC: 0.293
Gene 7351
  UCP2 log2FC: 0.166
Gene 7374
  UNG log2FC: -0.352
Gene 7409
  VAV1 log2FC: 0.641
Gene 7410
  VAV2 log2FC: 0.038
Gene 7415
  VCP log2FC: -0.262
Gene 7416
  VDAC1 log2FC: -0.421
Gene 7421
  VDR log2FC: -1.024
Gene 7423
  VEGFB log2FC: 0.125
Gene 7428
  VHL log2FC: -0.079
Gene 7466
  WFS1 log2FC: -0.599
Gene 7474
  WNT5A log2FC: 0.134
Gene 7476
  WNT7A log2FC: -0.086
Gene 7477
  WNT7B log2FC: -0.378
Gene 7480
  WNT10B log2FC: -0.488
Gene 7481
  WNT11 log2FC: -0.088
Gene 7483
  WNT9A log2FC: 0.041
Gene 7486
  WRN log2FC: 0.379
Gene 7490
  WT1 log2FC: -0.652
Gene 7498
  XDH log2FC: 0.004
Gene 7507
  XPA log2FC: 0.468
Gene 7516
  XRCC2 log2FC: -0.599
Gene 7518
  XRCC4 log2FC: 0.561
Gene 7529
  YWHAB log2FC: 0.178
Gene 7531
  YWHAE log2FC: 0.050
Gene 7532
  YWHAG log2FC: -0.883
Gene 7533
  YWHAH log2FC: -0.481
Gene 7534
  YWHAZ log2FC: -0.301
Gene 7564
  ZNF16 log2FC: 0.344
Gene 7703
  PCGF2 log2FC: -0.113
Gene 7818
  DAP3 log2FC: 0.276
Gene 7832
  BTG2 log2FC: -1.051
Gene 7849
  PAX8 log2FC: 0.485
Gene 7855
  FZD5 log2FC: -0.196
Gene 7857
  SCG2 log2FC: 0.168
Gene 8013
  NR4A3 log2FC: 0.337
Gene 8022
  LHX3 log2FC: 0.039
Gene 8045
  RASSF7 log2FC: 0.194
Gene 8061
  FOSL1 log2FC: -2.531
Gene 8065
  CUL5 log2FC: -0.235
Gene 8087
  FXR1 log2FC: 0.653
Gene 8091
  HMGA2 log2FC: -1.508
Gene 8200
  GDF5 log2FC: -0.438
Gene 8241
  RBM10 log2FC: -0.115
Gene 8312
  AXIN1 log2FC: 0.422
Gene 8382
  NME5 log2FC: 0.271
Gene 8398
  PLA2G6 log2FC: -0.123
Gene 8406
  SRPX log2FC: 0.201
Gene 8428
  STK24 log2FC: -0.049
Gene 8439
  NSMAF log2FC: 0.165
Gene 8445
  DYRK2 log2FC: -0.467
Gene 8451
  CUL4A log2FC: 0.376
Gene 8452
  CUL3 log2FC: 0.00335
Gene 8453
  CUL2 log2FC: 0.251
Gene 8454
  CUL1 log2FC: 0.207
Gene 8462
  KLF11 log2FC: 1.202
Gene 8473
  OGT log2FC: 0.352
Gene 8517
  IKBKG log2FC: -0.216
Gene 8535
  CBX4 log2FC: -0.090
Gene 8539
  API5 log2FC: -0.497
Gene 8565
  YARS log2FC: -0.500
Gene 8567
  MADD log2FC: 0.749
Gene 8633
  UNC5C log2FC: 0.011
Gene 8644
  AKR1C3 log2FC: 0.528
Gene 8648
  NCOA1 log2FC: 0.476
Gene 8655
  DYNLL1 log2FC: -1.055
Gene 8660
  IRS2 log2FC: 0.876
Gene 8678
  BECN1 log2FC: 0.354
Gene 8682
  PEA15 log2FC: 0.569
Gene 8692
  HYAL2 log2FC: -0.333
Gene 8717
  TRADD log2FC: 0.506
Gene 8718
  TNFRSF25 log2FC: -0.549
Gene 8737
  RIPK1 log2FC: -0.336
Gene 8738
  CRADD log2FC: -0.080
Gene 8739
  HRK log2FC: 0.399
Gene 8767
  RIPK2 log2FC: 0.379
Gene 8771
  TNFRSF6B log2FC: -1.304
Gene 8772
  FADD log2FC: -0.617
Gene 8784
  TNFRSF18 log2FC: -0.038
Gene 8793
  TNFRSF10D log2FC: -0.508
Gene 8795
  TNFRSF10B log2FC: -0.908
Gene 8797
  TNFRSF10A log2FC: -0.907
Gene 8805
  TRIM24 log2FC: 0.826
Gene 8829
  NRP1 log2FC: -0.252
Gene 8831
  SYNGAP1 log2FC: -0.399
Gene 8835
  SOCS2 log2FC: 0.381
Gene 8837
  CFLAR log2FC: -0.542
Gene 8841
  HDAC3 log2FC: -0.248
Gene 8846
  ALKBH1 log2FC: -0.111
Gene 8848
  TSC22D1 log2FC: 0.388
Gene 8851
  CDK5R1 log2FC: -0.328
Gene 8854
  ALDH1A2 log2FC: 0.042
Gene 8870
  IER3 log2FC: -2.265
Gene 8874
  ARHGEF7 log2FC: 0.044
Gene 8877
  SPHK1 log2FC: -0.416
Gene 8878
  SQSTM1 log2FC: 0.782
Gene 8879
  SGPL1 log2FC: -0.0047
Gene 8887
  TAX1BP1 log2FC: 1.267
Gene 8915
  BCL10 log2FC: 0.116
Gene 8930
  MBD4 log2FC: 0.294
Gene 8996
  NOL3 log2FC: 0.486
